Reference: US20100022582A1, “Tetrahydroisoquinoline Compound and Medicinal Use Thereof” (priority 2005, published 2010)

How the values were obtained:
[1] = system: liver ACAT; assay: ACAT inhibitory activity (rabbit liver microsome, cholesteryl oleate production); format: biochemical, Japanese white rabbits; conditions: 37° C. for 20 min
Procedure: Male Japanese white rabbits (body weight 2-2.5 kg) were bred on 100 g of a high cholesterol feed (feed added with cholesterol 1%, CLEA Japan, Inc.) daily for 4 weeks and sacrificed by exsanguination under anesthesia. The liver was removed, homogenated and centrifuged at 10,000 rpm and 4° C. for 15 min. The obtained supernatant was further centrifuged at 41,000 rpm and 4° C. for 60 min to give a microsome fraction. To a 0.15 M phosphate buffer were added the microsome suspension as an enzyme specimen, dimethyl sulfoxide (DMSO) or a solution (3 μL) of a test compound in DMSO and [1-14C]-oleoyl-CoA to be a reaction substrate to the total amount of 300 μL. After incubation at 37° C. for 20 min, a mixed solution of chloroform-methanol was added to quench the reaction. Water was added thereto and mixed, and the chloroform layer was separated. The solvent was evaporated to dryness and the residue was redissolved in n-hexane. The resulting solution was subjected to thin layer chromatography using a silica gel plate. The spot of cholesteryl oleate on the silica gel plate was scraped and quantified on a liquid scintillation counter. The ACAT inhibitory activity of the test compound is shown in cholesteryl oleate production inhibitory rate (%) [level of inhibition of cholesteryl oleate production as compared to the control].

[2] = system: brain homogenate lipid peroxidation; assay: Lipid peroxidation-inhibitory action (brain homogenate, MDA); format: biochemical, SD rat; conditions: rat brain homogenate, 37° C. for 30 min
Procedure: The brain was removed from male SD rat, and a 50 mM phosphate buffer (pH 7.4, 5-fold amount of brain weight) was added. The mixture was homogenized under ice-cooling for 30 sec, and centrifuged at 4° C., 3200 rpm for 10 min. The supernatant was diluted 5-fold with 50 mM phosphate buffer to give a brain homogenate. A test compound (10 μL) was placed in a glass test tube, the brain homogenate (1 mL) was added, and the mixture was incubated at 37° C. for 30 min. 20% Trichloroacetic acid (1 mL) was added to quench the reaction. The reaction mixture was centrifuged at room temperature, 4000 rpm for 10 min. Thiobarbituric acid (0.2 mL) was added to the supernatant (1 mL) and the mixture was heated at 95° C. for 15 min. The absorbance at 532 nm was measured, and lipid peroxide was quantified as malondialdehyde (MDA). The MDA level was compared between the control and the test compound-added sample, and the lipid peroxidation inhibitory rate was calculated.

[3] = Stable radical elimination action (DPPH); conditions: 0.1 mM DPPH, room temperature for 60 min
Procedure: 0.1 mM Diphenyl-2-picrylhydrazyl (DPPH) acetonitrile (CH3CN) solution (3 mL) was placed in a glass test tube, and a DMSO solution of a test compound was added at a 1% dose (30 μL). As a control, 0.1 mM DPPH CH3CN solution (3 mL) containing DMSO (30 μL) was used and for a blank test, CH3CN (3 mL) containing DMSO (30 μL) was used. After standing the solutions at room temperature for 60 min (20 min for Examples 69, 72 and 73), the absorbance at 517 nm was measured by a spectrophotometer. A stable radical inhibitory rate when control was 100% was calculated from [(absorbance of test substance−absorbance of blank test)÷(absorbance of control−absorbance of blank test)].

[4] = system: THP-1 cell-derived macrophage; assay: Cholesterol ester accumulation-inhibitory activity (THP-1 cell-derived macrophage foam cell formation); format: cell-based; conditions: THP-1 macrophage, acetyl LDL, 3 days
Procedure: THP-1 cells (DAINIPPON PHARMACEUTICAL CO., LTD.) were subcultured in RPMI-1640 medium containing 10% fetal calf serum (FBS), and cells at 6-13th passage after purchase were used. The cells were suspended in FBS-containing RPMI-1640 medium to give a suspension having a concentration of 4×10^5 cells/mL. The cell suspension was seeded on 12-well microplate by 1 mL, and treated with phorbol 12-myristate 13-acetate (PMA, 200 nM) as a differentiation inducer into macrophage. Then, acetyl LDL (400 μg/mL) separately prepared from LDL derived from plasma of a rabbit with genetic hyperlipidemia (KHC rabbit, Japan Laboratory Animals Inc.) was added. A test compound further dissolved in dimethyl sulfoxide (DMSO) and diluted with FBS-containing RPMI-1640 medium and a control solvent were applied. After cultivation in a carbon dioxide incubator for 3 days, the cells were washed with phosphate-buffered saline (pH 7.0), and the lipid was extracted with hexane-isopropanol (3:2). In addition, the cells were lysed with 1N-NaOH, and the protein content was measured. Free cholesterol and cholesterol ester in the lipid extraction sample were measured according to the method of Kunitomo et al. [Japan. J. Pharmacol., 34, 153-158 (1984)]. Cholesterol esters in the control cells and the cells treated with the test compound were compared, and the cholesterol ester accumulation inhibitory rate of the test compound was calculated.

Structure (SMILES): CCCCCCCC(=O)N1Cc2ccccc2C[C@H]1C(=O)Nc1c(C(C)C)cccc1C(C)C [Example 3, N-(2,6-diisopropylphenyl)-2-octanoyl-1,2,3,4-tetrahydroisoquinoline-(3S)-carboxamide]
- liver ACAT inhibition rate (%) (concentration: 10^−6 M) [1]: 93.3%

Structure (SMILES): CCCCCCCC(=O)N1Cc2ccccc2C[C@H]1C(=O)Nc1c(C)cc(C)cc1C [Example 9, 2-octanoyl-N-(2,4,6-trimethylphenyl)-1,2,3,4-tetrahydroisoquinoline-(3S)-carboxamide]
- liver ACAT inhibition rate (%) (concentration: 10^−6 M) [1]: 88.6%

Structure (SMILES): CCCCC(=O)N1Cc2ccccc2C[C@H]1C(=O)Nc1cc(C(C)(C)C)c(O)c(C(C)(C)C)c1 [Example 13, N-(3,5-di-tert-butyl-4-hydroxyphenyl)-2-pentanoyl-1,2,3,4-tetrahydroisoquinoline-(3S)-carboxamide]
- inhibitory rate (%) (10^−4M), lipid peroxidation [2]: 100.1%

Structure (SMILES): CCCCCCCC(=O)N1Cc2ccccc2C[C@@H]1C(=O)Nc1c(C)cc(C)cc1C [Example 26, 2-octanoyl-N-(2,4,6-trimethylphenyl)-1,2,3,4-tetrahydroisoquinoline-(3R)-carboxamide]
- liver ACAT inhibition rate (%) (concentration: 10^−6 M) [1]: 83.8%

Structure (SMILES): CC(C)(C)CN1Cc2ccccc2C[C@H]1C(=O)Nc1cc(C(C)(C)C)c(O)c(C(C)(C)C)c1 [Example 47, N-(3,5-di-tert-butyl-4-hydroxyphenyl)-2-(2,2-dimethylpropyl)-1,2,3,4-tetrahydroisoquinoline-(3S)-carboxamide]
- inhibitory rate (%) (10^−4M), stable radical [3]: 66.1%
- inhibitory rate (%) (10^−4M), lipid peroxidation [2]: 100.1%

Structure (SMILES): Cc1cc(NC(=O)[C@@H]2Cc3ccccc3CN2CC(C)(C)C)c(C)c(C)c1O.Cl [Example 48, 2-(2,2-dimethylpropyl)-N-(4-hydroxy-2,3,5-trimethylphenyl)-1,2,3,4-tetrahydroisoquinoline-(3S)-carboxamide hydrochloride]
- inhibitory rate (%) (10^−4M), stable radical [3]: 91.7%
- inhibitory rate (%) (10^−4M), lipid peroxidation [2]: 100.5%

Structure (SMILES): CCCCCCCC(=O)N1Cc2ccccc2C[C@H]1C(=O)Nc1cc(C)c(O)c(C)c1C [Example 49, N-(4-hydroxy-2,3,5-trimethylphenyl)-2-octanoyl-1,2,3,4-tetrahydroisoquinoline-(3S)-carboxamide]
- liver ACAT inhibition rate (%) (concentration: 10^−6 M) [1]: 96.8%

Structure (SMILES): Cc1cc(NC(=O)[C@@H]2Cc3ccccc3CN2C(=O)C(C)C)c(C)c(C)c1O [Example 50, N-(4-hydroxy-2,3,5-trimethylphenyl)-2-isobutyryl-1,2,3,4-tetrahydroisoquinoline-(3S)-carboxamide]
- inhibitory rate (%) (10^−4M), lipid peroxidation [2]: 85.7%

Structure (SMILES): CCCCCN1Cc2ccccc2C[C@H]1C(=O)Nc1cc(C(C)(C)C)c(O)c(C(C)(C)C)c1 [Example 51, N-(3,5-di-tert-butyl-4-hydroxyphenyl)-2-pentyl-1,2,3,4-tetrahydroisoquinoline-(3S)-carboxamide]
- inhibitory rate (%) (10^−4M), stable radical [3]: 63.8%
- inhibitory rate (%) (10^−4M), lipid peroxidation [2]: 100.3%

Structure (SMILES): CCC(C)(C)C(=O)N1Cc2cc(N(C)C)ccc2C[C@@H]1C(=O)Nc1cc(C)c(O)c(C)c1C.Cl [Example 75, 7-dimethylamino-2-(2,2-dimethylbutyryl)-N-(4-hydroxy-2,3,5-trimethylphenyl)-1,2,3,4-tetrahydroisoquinoline-(3R)-carboxamide hydrochloride]
- cholesteryl ester accumulation inhibitory rate (%) (concentration: 10^−6 M) [4]: 93.4%
- liver ACAT inhibition rate (%) (concentration: 10^−6 M) [1]: 88.8%

Structure (SMILES): CCCCCCCC(=O)N1Cc2cc(N(C)C)ccc2C[C@H]1C(=O)Nc1c(C)cc(C)cc1C [Example 76, 7-dimethylamino-2-octanoyl-N-(2,4,6-trimethylphenyl)-1,2,3,4-tetrahydroisoquinoline-(3S)-carboxamide]
- liver ACAT inhibition rate (%) (concentration: 10^−6 M) [1]: 76.7%

Structure (SMILES): CCCCCC(=O)N1Cc2cc(N)ccc2C[C@H]1C(=O)Nc1cc(C)c(O)c(C)c1C.Cl [Example 80, 7-amino-2-hexanoyl-N-(4-hydroxy-2,3,5-trimethylphenyl)-1,2,3,4-tetrahydroisoquinoline-(3S)-carboxamide hydrochloride]
- cholesteryl ester accumulation inhibitory rate (%) (concentration: 10^−6 M) [4]: 94.5%
- liver ACAT inhibition rate (%) (concentration: 10^−6 M) [1]: 93.4%

Structure (SMILES): CCCCCC(=O)N1Cc2cc(N(C)C)ccc2C[C@H]1C(=O)Nc1cc(C)c(O)c(C)c1C.Cl [Example 83, 7-dimethylamino-2-hexanoyl-N-(4-hydroxy-2,3,5-trimethylphenyl)-1,2,3,4-tetrahydroisoquinoline-(3S)-carboxamide hydrochloride]
- cholesteryl ester accumulation inhibitory rate (%) (concentration: 10^−6 M) [4]: 100.2%
- liver ACAT inhibition rate (%) (concentration: 10^−6 M) [1]: 97.0%

Structure (SMILES): CCCN1Cc2cc(N(C)C)ccc2C[C@H]1C(=O)Nc1cc(C)c(O)c(C)c1C [Example 84, 7-dimethylamino-N-(4-hydroxy-2,3,5-trimethylphenyl)-2-propyl-1,2,3,4-tetrahydroisoquinoline-(3S)-carboxamide]
- inhibitory rate (%) (10^−4M), stable radical [3]: 71.9%
- inhibitory rate (%) (10^−4M), lipid peroxidation [2]: 100.9%

Structure (SMILES): CCC(C)(C)C(=O)N1Cc2cc(N)ccc2C[C@H]1C(=O)Nc1cc(C)c(O)c(C)c1C.Cl [Example 104, 7-amino-2-(2,2-dimethylbutyryl)-N-(4-hydroxy-2,3,5-trimethylphenyl)-1,2,3,4-tetrahydroisoquinoline-(3S)-carboxamide hydrochloride]
- cholesteryl ester accumulation inhibitory rate (%) (concentration: 10^−6 M) [4]: 77.3%
- liver ACAT inhibition rate (%) (concentration: 10^−6 M) [1]: 80.6%

Structure (SMILES): Cc1cc(NC(=O)[C@@H]2Cc3ccc(NS(C)(=O)=O)cc3CN2C(=O)CC(C)(C)C)c(C)c(C)c1O [Example 106, 2-(3,3-dimethylbutyryl)-N-(4-hydroxy-2,3,5-trimethylphenyl)-7-methanesulfonylamino-1,2,3,4-tetrahydroisoquinoline-(3S)-carboxamide]
- cholesteryl ester accumulation inhibitory rate (%) (concentration: 10^−6 M) [4]: 76.9%
- liver ACAT inhibition rate (%) (concentration: 10^−6 M) [1]: 89.6%

Structure (SMILES): CCCCCC(=O)N1Cc2cc(O)ccc2C[C@H]1C(=O)Nc1c(C(C)C)cc(N)cc1C(C)C.Cl [Example 114, N-(4-amino-2,6-diisopropylphenyl)-2-hexanoyl-7-hydroxy-1,2,3,4-tetrahydroisoquinoline-(3S)-carboxamide hydrochloride]
- liver ACAT inhibition rate (%) (concentration: 10^−6 M) [1]: 87.5%

Structure (SMILES): CCCCCC(=O)N1Cc2cc(O)ccc2C[C@H]1C(=O)Nc1cc(C)c(O)c(C)c1C [Example 116, 2-hexanoyl-7-hydroxy-N-(4-hydroxy-2,3,5-trimethylphenyl)-1,2,3,4-tetrahydroisoquinoline-(3S)-carboxamide]
- liver ACAT inhibition rate (%) (concentration: 10^−6 M) [1]: 97.2%

Structure (SMILES): CCCCCCCC(C)(C)CN1Cc2cc(OC(C)(C)C(=O)O)ccc2C[C@H]1c1cc(C)c(O)c(C)c1C [Example 132, 2-{[2-(2,2-dimethylnonyl)-(3S)-(4-hydroxy-2,3,5-trimethylphenyl)-1,2,3,4-tetrahydroisoquinolin-7-yl]oxy}-2-methylpropionic acid]
- inhibitory rate (%) (10^−4M), stable radical [3]: 80.7%
- inhibitory rate (%) (10^−4M), lipid peroxidation [2]: 105.6%

Structure (SMILES): Cc1cc(NC(=O)[C@@H]2Cc3ccc(CN(C)CCF)cc3CN2C(=O)C(C)(C)C)c(C)c(C)c1O [Example 139, 2-(2,2-dimethylpropionyl)-7-(2-fluoro-N-methylethylamino)methyl-N-(4-hydroxy-2,3,5-trimethylphenyl)-1,2,3,4-tetrahydroisoquinoline-(3S)-carboxamide]
- cholesteryl ester accumulation inhibitory rate (%) (concentration: 10^−6 M) [4]: 84.6%
- inhibitory rate (%) (10^−4M), lipid peroxidation [2]: 99.7%
